How the values were obtained:
[1] = Decomposition rate studies (half-life of azo and peroxide portions); assay type: physicochemical
Protocol: The temperatures at which the polymerizations are carried out will depend upon the polymerization technique; the monomer, solvent or suspending medium; and the physical properties desired in the polymer; but most of all upon the azo-peroxide initiator and the method chosen to decompose the azo or peroxide portion of the initiator. Activation of the peroxide portion by amines, reducing agents, transition metal carboxylates, etc., can be carried out from below -20° C up to its normal decomposition temperature. The same is true for activation of the peroxide or azo portions by irradiation. Irradiation sources can be ultra-violet radiation, and in the presence of photosensitizers (e.g. certain azo dyes) visible light can also be used. The temperatures used for the thermal decompositions of the azo or peroxide portions will depend upon the thermal stability (half-life) of the azo or peroxide grouping in the molecule. These half-lives can be determined quantitatively for each azo-peroxide compound by conventional methods i.e. gas evolution, and iodometric, ultra-violet, or gas chromatographic analytical techniques to determine the rate of disappearance of each portion (azo or peroxide) at any given temperature. (Such half-life data were determined for the compounds made in Examples 1 to 5.) […]
Its infrared spectrum was in agreement with the above structure showing both peresters and acid chloride carbonyl absorption bands. […] Apparently, the perester undergoes induced decomposition at this relatively high temperature.

Storage stability = assay type: physicochemical

## CC(C#N)(CCC(=O)OOC(C)(C)C)N=NC(C)(C#N)CCC(=O)OOC(C)(C)C (stereo not drawn) [Example 4, Di-t-butylperoxy Ester of cis-4,4'-Azobis(4-cyanovalericacid)]
[1]; 80° C, trichlorobenzene
  t1/2 of azo portion: ≈ 92 minutes
  t1/2 of perester portion: ≈ 319 minutes
Storage stability; two days at 21° C
  change of infrared spectrum on standing (room temperature stability): not changed

## CC1(C#N)CCC(=O)OOC(=O)CCC(C)(C#N)N=N1 (stereo not shown) [Example 1, 6,9-Dimethyl-6,9-dicyano-Δ^7,1,2-dioxa-7,8-diazacyclododecan-3,12-dione]
[1]; 70° C, o-dichlorobenzene
  t1/2 of azo portion: ≈ 236 minutes
  t1/2 of diacyl peroxide portion: ≈ 99 minutes
Storage stability
  storage stability: more than one month

## CC(C#N)(CCC(=O)Cl)N=NC(C)(C#N)CCC(=O)OOC(C)(C)C (stereo not drawn) [Example 5, mono-t-Butylperoxy Ester of the Diacid Chloride of trans-4,4'-Azobis(4-cyanovaleric acid)]
[1]; 90° C, dioctyl phthalate
  decomposition order of azo and perester linkages: decompose simultaneously
